These results are taken from US11485736B2 (KSQ Therapeutics, Inc., priority 2018, dated 2022).

Read-outs that look alike come from different tables or passages of the source. A value given as a limit tells only on which side of the number the result lay.

Data set [1] in a line: ADME solubility determination at pH 2.0 and pH 7.4. Format: physicochemical. As to conditions: aqueous buffer, thermodynamic from solid, LC-MS/MS. The essentials: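 Dried residues of 10 mM DMSO stocks were shaken in PBS pH 7.4 or pH 2.0 for 24 hours at 25° C. and 1,100 rpm. After centrifugation, supernatants were quantified by LC-MS/MS against a standard of known concentration, applying a dilution factor.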

Data set [2] in a line: Liver microsomal stability, human liver microsomes. As to conditions: 1 μM compound, NADPH, read-out: t1/2 (min) in HLM. The format is in vitro ADME. The essentials:
(§1)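 Compound (1 μM final) was incubated with prewarmed human or rat liver microsomes (1 mg/mL in 100 mM phosphate master mix) plus NADPH; aliquots at 0.5–30 minutes were quenched in cold acetonitrile and quantified by LC-MS/MS. Half-life came from the ln(% remaining) versus time slope, converted to CLint (μL/min/mg prot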

The nature of data set [3]: Liver microsomal stability, rat liver microsomes. The format is in vitro ADME. Conditions: 1 μM compound, NADPH, read-out: t1/2 (min) in RLM. The essentials:
as §1
On the technique in general: Microsomes from liver hold many membrane-bound enzymes, among them those of drug oxidation.

[4] abbreviates: PBS pH 2.0, shaken at 25° C. for 24 hours, read-out: Solubility at pH 2.0.
[5] abbreviates: PBS pH 7.4, shaken at 25° C. for 24 hours, read-out: Solubility at pH 7.4.

What is called solubility is how much of the substance goes into solution per volume. Turning to `CCn1cc(C(F)(F)F)nc1-c1ccc(Cn2ncc3c(C)nc(-c4c(OC)ncnc4C4CC4)nc32)cc1` [Example 53], the solubility at 24 h in data set [1] (setting [4]) and in data set [1] (setting [5]) was below 10 µM each time. The half-life at 1 μM in data set [2] and in data set [3] was above 25 min throughout.

For `COc1nc(N)nc(C2CC2)c1-c1ncc2cnn(Cc3ccc(-n4nc(C(F)(F)F)cc4C)cc3)c2n1` [Example 112], the solubility at 24 h in data set [1] (setting [4]) is above 10 µM; in data set [1] (setting [5]), below 10 µM. Moreover, the half-life at 1 μM in data set [2] and in data set [3] was above 25 min each time.

In the case of `COc1cccc(C2CC2)c1-c1ncc2cnn(Cc3ccc(-c4nc(C(F)(F)F)cn4C)cc3)c2n1` [Example 11, 6-(2-cyclopropyl-6-methoxyphenyl)-1-(4-(1-methyl-4-(trifluoromethyl)-1H-imidazol-2-yl)benzyl)-1H-pyrazolo[3,4-d]pyrimidine], the solubility at 24 h in data set [1] (setting [4]) and in data set [1] (setting [5]) was above 10 µM in each case. The half-life at 1 μM in data set [2] and in data set [3] was below 25 min each time.

As for `CCn1cc(C(F)(F)F)nc1-c1ccc([C@H](C)n2nc(OC)c3cnc(-c4c(OC)ncnc4C4CC4)nc32)cc1` [Example 180], the solubility at 24 h in data set [1] (setting [4]) and in data set [1] (setting [5]) was below 10 µM in each case. Further, the half-life at 1 μM in data set [2] and in data set [3] was above 25 min in each case.

In the case of `COc1ncnc(C2CC2)c1-c1ncc2cnn(Cc3ccc(-c4nc(C(F)(F)F)n(C)n4)cc3)c2n1` [Example 85], the solubility at 24 h in data set [1] (setting [4]) and in data set [1] (setting [5]) was below 10 µM in each case. In addition, the half-life at 1 μM in data set [2] and in data set [3] was above 25 min throughout.

Turning to `COc1ncnc(C2CC2)c1-c1ncc2ncn(Cc3ccc(-n4nc(C(F)(F)F)cc4C)cc3)c2n1` [Example 210], the solubility at 24 h in data set [1] (setting [4]) and in data set [1] (setting [5]) was above 10 µM each time. Also, the half-life at 1 μM in data set [2] and in data set [3] was above 25 min throughout.

For `Cc1cc(C(F)F)nn1-c1ccc(Cn2ncc3cnc(-c4cccnc4C(C)C)nc32)cc1` [Example 32], the solubility at 24 h was above 10 µM in data set [1] (setting [4]) and below 10 µM in data set [1] (setting [5]). Besides, the half-life at 1 μM in data set [2] and in data set [3] was below 25 min each time.

As to `COc1ncnc(C2CC2)c1-c1ncc2cnn(Cc3ccc(-c4nc(C(F)(F)F)sc4C)cc3)c2n1` [Example 125], the solubility at 24 h in data set [1] (setting [4]) and in data set [1] (setting [5]) was below 10 µM throughout. The half-life at 1 μM in data set [2] and in data set [3] was above 25 min throughout.

In the case of `COc1ncnc(C2CC2)c1-c1ncc2cnn(Cc3ccc(-n4nc(C(F)(F)F)cc4OC)cc3)c2n1` [Example 37], the solubility at 24 h in data set [1] (setting [4]) and in data set [1] (setting [5]) was below 10 µM throughout. Besides, the half-life at 1 μM in data set [2] and in data set [3] was above 25 min in each case.

In the case of `COc1ncnc(C2CC2)c1-c1ncc2nc(C3CCC3)n(Cc3ccc(-n4nc(C(F)(F)F)cc4C)cc3)c2n1` [Example 214], the solubility at 24 h in data set [1] (setting [4]) and in data set [1] (setting [5]) was below 10 µM in each case. The half-life at 1 μM in data set [2] and in data set [3] was above 25 min each time.

With `CCn1cc(C(F)(F)F)nc1-c1ccc(Cn2ncc3cnc(-c4c(OC)cnn4C4CCC4)nc32)cc1` [Example 84], the solubility at 24 h in data set [1] (setting [4]) and in data set [1] (setting [5]) was below 10 µM throughout. The half-life at 1 μM in data set [2] and in data set [3] was below 25 min throughout.

In the case of `CNc1cc(C(F)(F)F)nn1-c1ccc(Cn2ncc3cnc(-c4c(OC)ncnc4C4CC4)nc32)cc1` [Example 120], the solubility at 24 h in data set [1] (setting [4]) and in data set [1] (setting [5]) was below 10 µM throughout. Moreover, the half-life at 1 μM in data set [2] and in data set [3] was below 25 min in each case.

`COc1ncnc(C2CC2)c1-c1ncc2nc(C(C)C)n(Cc3ccc(-n4nc(C(F)(F)F)cc4C)cc3)c2n1` [Example 212]: the solubility at 24 h in data set [1] (setting [4]) and in data set [1] (setting [5]) was below 10 µM each time. Further, the half-life at 1 μM in data set [2] and in data set [3] was above 25 min in each case.

As to `COc1ncnc(C2CC2)c1-c1ncc2cnn(Cc3ccc(-c4nc(C(F)(F)F)oc4C)cc3)c2n1` [Example 127], the solubility at 24 h in data set [1] (setting [4]) and in data set [1] (setting [5]) was below 10 µM in each case. Besides, the half-life at 1 μM in data set [2] and in data set [3] was above 25 min each time.

`COc1ncnc(C2CC2)c1-c1ncc2cnn([C@@H]3CCc4cc(-c5nc(C(F)(F)F)cn5C(C)C)ccc43)c2n1` [Example 174]: the solubility at 24 h in data set [1] (setting [4]) and in data set [1] (setting [5]) was below 10 µM in each case. Also, the half-life at 1 μM in data set [2] and in data set [3] was above 25 min in each case.

Take `CCn1cc(C(F)(F)F)nc1-c1ccc(Cn2nc(Br)c3cnc(-c4c(OC)ncnc4C4CC4)nc32)cc1` [Example 170, 3-bromo-6-(4-cyclopropyl-6-methoxypyrimidin-5-yl)-1-(4-(1-ethyl-4-(trifluoromethyl)-1H-imidazol-2-yl)benzyl)-1H-pyrazolo[3,4-d]pyrimidine]: the solubility at 24 h in data set [1] (setting [4]) and in data set [1] (setting [5]) was below 10 µM throughout. Further, the values for the half-life at 1 μM in data set [2] and in data set [3] were above 25 min and below 25 min, respectively.

Regarding `COc1ncnc(C)c1-c1ncc2cnn(Cc3ccc(-n4nc(C(F)(F)F)cc4C)cc3)c2n1` [Example 48], the solubility at 24 h was above 10 µM in data set [1] (setting [4]) and below 10 µM in data set [1] (setting [5]). Besides, the half-life at 1 μM in data set [2] and in data set [3] was above 25 min throughout.

For `CCn1cc(C(F)(F)F)nc1-c1ccc(Cn2ncc3cnc(-c4c(OC)ncnc4C4CN(C)C4)nc32)cc1` [Example 101], the values for the solubility at 24 h in data set [1] (setting [4]) and in data set [1] (setting [5]) were above 10 µM and below 10 µM, respectively. In addition, the half-life at 1 μM in data set [2] and in data set [3] was below 25 min in each case.

Consider `CCn1cc(C(F)(F)F)nc1-c1ccc([C@H](C)n2ncc3cnc(-c4c(OC)ncnc4OC)nc32)cc1` [Example 88], for which the solubility at 24 h in data set [1] (setting [4]) and in data set [1] (setting [5]) was above 10 µM throughout. Also, the half-life at 1 μM was above 25 min in data set [2] and below 25 min in data set [3].

Regarding `COc1ncnc(C2CC2)c1-c1ncc2cnn(Cc3ccc(-n4nc(C(F)(F)F)cc4-c4ccco4)cc3)c2n1` [Example 30, 6-(4-cyclopropyl-6-methoxypyrimidin-5-yl)-1-(4-(5-(furan-2-yl)-3-(trifluoromethyl)-1H-pyrazol-1-yl)benzyl)-1H-pyrazolo[3,4-d]pyrimidine], the solubility at 24 h in data set [1] (setting [4]) and in data set [1] (setting [5]) was below 10 µM in each case. Moreover, the half-life at 1 μM in data set [2] and in data set [3] was below 25 min each time.

On to `CCn1cc(C(F)(F)F)nc1-c1ccc(Cn2ncc3cnc(-c4c(OC5CC5)ncnc4C4CC4)nc32)cc1` [Example 63], for which the solubility at 24 h in data set [1] (setting [4]) was above 10 µM; in data set [1] (setting [5]) it was below 10 µM. The half-life at 1 μM in data set [2] was above 25 min; in data set [3], below 25 min.

Take `COc1ncnc(C2CC2)c1-c1ncc2cnn(Cc3ccc(-n4nc(C(F)(F)F)cc4OCCO)cc3)c2n1` [Example 78]: the solubility at 24 h in data set [1] (setting [4]) and in data set [1] (setting [5]) was below 10 µM in each case. Moreover, the half-life at 1 μM in data set [2] and in data set [3] was above 25 min each time.

Consider `COc1ncnc(C2CCC2)c1-c1ncc2cnn(Cc3ccc(-c4nc(C(F)(F)F)cn4C)cc3)c2n1` [Example 15], for which the solubility at 24 h in data set [1] (setting [4]) and in data set [1] (setting [5]) was above 10 µM each time. Also, the half-life at 1 μM in data set [2] and in data set [3] was below 25 min in each case.

For the compound `CCn1cc(C(F)(F)F)nc1-c1ccc(Cn2nc(OC)c3cnc(-c4c(OC)ncnc4C4CC4)nc32)cc1` [Example 176], the values for the solubility at 24 h in data set [1] (setting [4]) and in data set [1] (setting [5]) were above 10 µM and below 10 µM, respectively. The half-life at 1 μM in data set [2] and in data set [3] was above 25 min in each case.

With `COc1ncnc(C2CC2)c1-c1ncc2cnn(Cc3ccc(-c4nc(C(F)(F)F)cn4C)c(F)c3)c2n1` [Example 17], the solubility at 24 h in data set [1] (setting [4]) and in data set [1] (setting [5]) was below 10 µM throughout. Moreover, the half-life at 1 μM in data set [2] and in data set [3] was above 25 min in each case.

For the compound `CCn1cc(C(F)(F)F)nc1-c1ccc(Cn2ncc3cnc(-c4c(OC)cnn4C4CC4)nc32)cc1` [Example 82], the solubility at 24 h in data set [1] (setting [4]) and in data set [1] (setting [5]) was below 10 µM each time. Further, the half-life at 1 μM in data set [2] and in data set [3] was below 25 min throughout.

On to `COc1ncnc(C2CC2)c1-c1ncc2cnn(Cc3ccc(-n4nc(C(F)(F)F)cc4N(C)C)c(F)c3)c2n1` [Example 122], for which the solubility at 24 h in data set [1] (setting [4]) and in data set [1] (setting [5]) was below 10 µM each time. Also, the half-life at 1 μM in data set [2] and in data set [3] was below 25 min throughout.

In the case of `CCn1cc(C(F)(F)F)nc1-c1ccc([C@@H](C)n2ncc3cnc(-c4c(OC)ncnc4C4CC4)nc32)cc1` (single isomer, unassigned) [Example 95], the results for the solubility at 24 h in data set [1] (setting [4]) and in data set [1] (setting [5]) were above 10 µM and below 10 µM, respectively. Further, the results for the half-life at 1 μM in data set [2] and in data set [3] were above 25 min and below 25 min, respectively.

With `CCn1cc(C(F)(F)F)nc1-c1ccc(Cn2nc(C)c3cnc(-c4c(OC)ncnc4C4CC4)nc32)cc1` [Example 187, 6-(4-cyclopropyl-6-methoxypyrimidin-5-yl)-1-(4-(1-ethyl-4-(trifluoromethyl)-1H-imidazol-2-yl)benzyl)-3-methyl-1H-pyrazolo[3,4-d]pyrimidine], the solubility at 24 h in data set [1] (setting [4]) and in data set [1] (setting [5]) was below 10 µM in each case. In addition, the results for the half-life at 1 μM in data set [2] and in data set [3] were above 25 min and below 25 min, respectively.
